Values quoted from earlier work in patent US20090105195A1, “COMPOSITION COMPRISING MICROBICIDAL ACTIVE INGREDIENTS” (priority 2007, published 2009).

What was measured:
Details in all cases: at low amounts, such as 0.025%
[1] = system: Human Immunodeficiency Virus
[2] = system: Herpes Simplex Virus
[3] = system: Human Papilloma Virus (HPV)

CCCCCCCCCCCCOS(=O)(=O)[O-].[Na+] [SLS, sodium lauryl sulfate]
complete inactivation: inactivation of Human Immunodeficiency Virus [1] | inactivation of Herpes Simplex Virus [2] | inactivation of Human Papilloma Virus (HPV) [3]
